Assay results reported in US10028942B2 (priority 2013, dated 2018).

Biological target: T1, DLK (Homo sapiens, UniProt Q12852)
T1 sequence (Q12852 1-520): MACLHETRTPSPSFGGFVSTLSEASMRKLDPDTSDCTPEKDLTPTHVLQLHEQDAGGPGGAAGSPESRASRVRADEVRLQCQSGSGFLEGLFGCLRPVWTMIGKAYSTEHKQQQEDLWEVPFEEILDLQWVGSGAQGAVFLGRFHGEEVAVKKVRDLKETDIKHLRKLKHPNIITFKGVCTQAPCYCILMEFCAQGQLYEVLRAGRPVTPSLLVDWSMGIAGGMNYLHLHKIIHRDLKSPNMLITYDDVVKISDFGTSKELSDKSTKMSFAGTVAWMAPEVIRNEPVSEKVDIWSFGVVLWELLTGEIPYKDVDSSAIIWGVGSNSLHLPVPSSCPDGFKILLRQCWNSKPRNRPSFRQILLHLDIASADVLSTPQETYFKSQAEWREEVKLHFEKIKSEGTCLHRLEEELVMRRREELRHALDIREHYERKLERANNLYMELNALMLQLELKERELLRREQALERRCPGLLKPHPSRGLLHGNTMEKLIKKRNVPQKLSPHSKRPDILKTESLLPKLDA
Test: biochemical
Details: not given

Compound | Ki
CC(C)n1nc(-c2cnc(N)c(C(F)F)c2)cc1C(C)(C)C#N [Compound 5, 2-(3-(6-amino-5-(difluoromethyl)pyridin-3-yl)-1-isopropyl-1H-pyrazol-5-yl)-2-methylpropanenitrile] | > 1000 nM
Nc1ncc(-c2cc(C3CCOCC3)n(C3CC(F)(F)C3)n2)cc1F [Compound 37, 5-(1-(3,3-difluorocyclobutyl)-5-(tetra-hydro-2H-pyran-4-yl)-1H-pyrazol-3-yl)-3-fluoropyridin-2-amine] | > 1000 nM
CC(C)n1nc(-c2cnc3[nH]cnc3c2)cc1C1CN(C2COC2)C1 [Compound 62, 6-(1-isopropyl-5-(1-(oxetan-3-yl)aze-tidin-3-yl)-1H-pyrazol-3-yl)-3H-imi-dazo[4,5-b]pyridine] | > 1000 nM
CC(C)n1nc(-c2cnc3c(c2)CC(=O)N3)cc1C1CCN(C2COC2)CC1 [Compound 73, 5-(1-isopropyl-5-(1-(oxetan-3-yl)pipe-ridin-4-yl)-1H-pyrazol-3-yl)-1H-pyrro-lo[2,3-b]pyridin-2(3H)-one] | > 1000 nM
CC(C)n1nc(-c2cnc3[nH]cnc3c2)cc1C1CCN(C2COC2)CC1 [Compound 79, 6-(1-isopropyl-5-(1-(oxetan-3-yl)pipe-ridin-4-yl)-1H-pyrazol-3-yl)-3H-imi-dazo[4,5-b]pyridine] | > 1000 nM
CC(C)n1nc(-c2cnc3c(c2)C(C)(C)C(=O)N3)cc1C1CCN(C2COC2)CC1 [Compound 80, 5-(1-isopropyl-5-(1-(oxetan-3-yl)pipe-ridin-4-yl)-1H-pyrazol-3-yl)-3,3-di-methyl-1H-pyrrolo[2,3-b]pyridin-2 (3H)-one] | > 1000 nM
Cc1cc(-c2cc(C3CCN(C4COC4)CC3)n(C(C)C)n2)cnc1N [Compound 82, 5-(1-isopropyl-5-(1-(oxetan-3-yl)pipe-ridin-4-yl)-1H-pyrazol-3-yl)-3-meth-ylpyridin-2-amine] | > 1000 nM
COC1(c2cc(-c3cnc(N)c(C(F)(F)F)c3)nn2C(C)C)CCN(C2COC2)CC1 [Compound 103, 5-(1-isopropyl-5-(4-methoxy-1-(oxetan-3-yl)piperidin-4-yl)-1H-pyrazol-3-yl)-3-(trifluoromethyl)pyridin-2-amine] | > 1000 nM

The remaining lines, values ahead:

Ki | Compound
29 nM | Cc1c[nH]c2ncc(-c3cc(C4CCOC4)n(CC4CC4)n3)cc12 (racemic) [Compound 13, 5-(1-(cyclopropylmethyl)-5-(tetrahydrofuran-3-yl)-1H-pyrazol-3-yl)-3-methyl-1H-pyrrolo[2,3-b]pyridine]
> 1000 nM | CC(C)n1nc(-c2cnc3c(c2)C(C)(C)C(=O)N3)cc1C1CN(C2COC2)C1 [Compound 61, 5-(1-isopropyl-5-(1-(oxetan-3-yl)aze-tidin-3-yl)-1H-pyrazol-3-yl)-3,3-dimeth-yl-1H-pyrrolo[2,3-b]pyridin-2(3H)-one]
> 1000 nM | CC(C)n1nc(-c2cnc3c(c2)OCCN3)cc1C1CCN(C2COC2)CC1 [Compound 94, 7-(1-isopropyl-5-(1-(oxetan-3-yl)pipe-ridin-4-yl)-1H-pyrazol-3-yl)-3,4-di-hydro-2H-pyrido[3,2-b][1,4]oxazine]
> 1000 nM | CC(C)n1nc(-c2cnc3c(c2)CCCN3)cc1C1CCN(C2COC2)CC1 [Compound 96, 6-(1-isopropyl-5-(1-(oxetan-3-yl)pipe-ridin-4-yl)-1H-pyrazol-3-yl)-1,2,3,4-tetahydro-1,8-naphthyridine]
> 1000 nM | CC1(Cn2nc(-c3cnc(N)c(Cl)c3)cc2[C@H]2[C@@H]3CN(CC(F)(F)F)C[C@@H]32)COC1 [Compound 112, 3-chloro-5-(1-((3-methyloxetan-3-yl)methyl)-5-((1R,5S,6r)-3-(2,2,2-trifluoro-ethyl)-3-azabicyclo[3.1.0]hexan-6-yl)-1H-pyrazol-3-yl)pyridin-2-amine]

Biological target: T1, DLK
Test: not given
Details: read-out: DLK (Ki) μM; TR-FRET; 5 nM GST-tagged DLK (catalytic domain aa 1-520), 40 nM HIS-MKK4 K131M substrate, 30 μM ATP, 60 minutes

Ki | Compound
0.0092 µM | CC(C)n1nc(-c2cnc(N)c(C(C)(F)F)c2)cc1[C@H]1[C@@H]2CN(C3COC3)C[C@@H]21 [Compound 175, 3-(1,1-difluoroethyl)-5-(1-isopropyl-5-((1R,5S,6r)-3-(oxetan-3-yl)-3-aza-bicyclo[3.1.0]hexan-6-yl)-1H-pyrazol-3-yl)pyridin-2-amine]
0.00067 µM | CC1(Cn2nc(-c3cnc(N)c(C(F)(F)F)c3)cc2[C@H]2[C@@H]3CN(C4COC4)C[C@@H]32)CC1 [Compound 177, 5-(1-((1-methylcyclopropyl)methyl)-5-((1R,5S,6r)-3-(oxetan-3-yl)-3-aza-bicyclo[3.1.0]hexan-6-yl)-1H-pyrazol-3-yl)-3-(trifluoromethyl)pyridin-2-amine]
